Assay results published in patent publication US20240252688A1, “COMPOSITIONS AND METHODS FOR ENHANCED PROTEIN PRODUCTION” (HDT Bio Corp., priority 2021, published 2024).

Tests used:
[1] = test system: BALB/c mice; experiment: Systemic (IV) compounds with IM NP-1/repRNA-ZIKV-117: serum ZIKV-117; assay type: in vivo; details: for ZIKV-117 expression compared to no compound group: compound IV (Dinaciclib 5 mg/kg, CDKI-73 5 mg/kg, AZD4573 1 mg/kg), 10 μg repRNA-ZIKV-117 IM, days 3-28
Protocol: The purpose of the experiment was to evaluate the effect of systemically administered compound inhibitors on protein expression.
A molar ratio of nitrogen to phosphate (N:P) for each of the formulation was adjusted. […] Each compound was formulated as an aqueous solution or suspension following instructions from the vendor (MedChemExpress). At the same time as systemic compound treatment, mice were given 10 μg repRNA-encoding ZIKV-117 mAb complexed to nanoparticles by IM injection in the hind leg. Mice were bled on days 3, 5, 7, 10, 14, 21 and 28 after administration of NP-1/repRNA-ZIKV-117, and assayed for ZIKV-117 levels in serum. The positive control group received an IFNAR-1 blocking monoclonal antibody (MAR1-5A3) by intraperitoneal (IP) injection one day before administration of NP-1/repRNA-ZIKV-117.

[2] = test system: C57BL/6 mice; experiment: IM injection of repRNA-SEAP with nanoparticle-encapsulated inhibitors: serum SEAP; assay type: in vivo; details: 500 μM dose level versus equivalent no compound group, days 3-28
Protocol: The ten candidate compounds were formulated in NP-1 nanoparticle emulsion to evaluate their effect on expression when co-delivered with repRNA. All compounds were readily soluble in non-polar solvents which enabled dissolution in the lipophilic squalene oil phase of NP-1. A probe sonication process was adapted to formulate candidate compounds in 1 mL batches of nanoparticle emulsions. The z-average nanoparticle diameter was measured by dynamic light scattering (DLS) and ranged from 110-130 nm. Activity of compounds formulated in nanoparticle emulsions was tested both in vitro (FIG. 11A). Cells were transfected with 20 ng repRNA per well in the presence of IFN and delivered with empty nanoparticles (no inhibitor) or nanoparticle encapsulating a compound inhibitor delivered at a calculated 0.5 μM per well. […] C57BL/6 female mice (6-8 weeks old; n=3/group) were injected by IM route with 10 μg repRNA-SEAP complexed with empty nanoparticles (no compound) or nanoparticles encapsulating a small molecule inhibitor at 500 μM. The positive control group received an IFNAR-1 blocking monoclonal antibody (MAR1-5A3) by intraperitoneal (IP) injection one day before IM injection of NP-1/repRNA-SEAP. […]

[3] = test system: IFIT2; experiment: NP-35 co-transfection: IFIT2 induction; assay type: cell-based, human; details: NP-35-formulated compound, A549-Dual cells
[4] = test system: NF-κB; experiment: NP-35 co-transfection: NF-κB induction; assay type: cell-based, human; details: highest concentrations of NP-35-formulated compound
Protocol: The objective of this experiment was to evaluate co-transfection of LNP (e.g., NP-35) with lead small molecule inhibitor compounds for enhancing protein expression from repRNA in transfected cells. […] LNP was formulated according to NP-35 formulation. Additionally, nanoparticles were also formulated according to […] formulation. About 5×10^4 A549-Dual cells were incubated at 37° C. with 5% CO2 for 18-24 hours with the compound at a concentration ranging from 1 μg to 0.06 ng. The cells were then treated with repRNA-nLuc, IFN, and nanoparticles (NP-35 or NP-30). The treated cells were incubated at 37° C. with 5% CO2 for 18-24 hours. nLuc expression was measured by Nano-GLO assay and plotted against the concentration of repRNA-nLuc that was used for the transfection (FIG. 14A-14H).

[5] = test system: A549-Dual cells; experiment: NP-35 co-encapsulating repRNA-nLuc and Dinaciclib: nLuc expression; assay type: cell-based, human; details: 0.5 mM Dinaciclib co-encapsulated, A549-Dual cells + IFN
Protocol: Briefly, A549-Dual cells were incubated at 37° C. with 5% CO2 for 18-24 hours. […] About 5×10^4 cells were transfected with the formulation at different concentrations in the presence of IFN. The transfected cells were incubated at 37° C. with 5% CO2 for 18-24 hours. nLuc expression was measured by Nano-GLO assay and plotted against the concentration of repRNA-nLuc that was used for the transfection (FIG. 15).

[6] = test system: IFIT2; experiment: Single-point screen: IFIT2 activation (Lucia luciferase, QUANTI-Luc); assay type: cell-based, human; details: Homo sapiens, 24 h; A549-Dual cells, compound 50 μM pre-treatment, NP-1+mRNA 20 ng/well + IFN; read-out: fold IFIT over IFN
Excerpt: (§1) The cells produce secreted embryonic alkaline phosphatase (SEAP), under the control of the interferon beta […] minimal promoter fused to five NF-κB binding sites. The cells also secrete lucia luciferase under the control of IFIT2 promoter.

[7] = test system: A549-Dual cells; experiment: Single-point screen: cell viability by CellTiter-Glo; details: A549-Dual cells incubated overnight with compound at 50 μM, then NP-1+mRNA 20 ng/well + IFN 1:50
Protocol: Finally, cell lysates were assayed with the CellTiter-GLO® assay (Promega) to obtain a luminescent-based measure of cell viability. In summary, the readouts from the high throughput screen included the primary measure of nLuc protein expression and three secondary readouts: IFIT, NF-κB and cell viability.
For each assay, A549-dual cells were plated at a seeding density of about 5×10^4 cells per well. Cells were incubated overnight with compounds at 50 microMolar (μM) in 1% v/v dimethyl sulfoxide (DMSO). For control wells, 1% DMSO was added to each well. After about 24 hours, the culture medium was removed, and cells were transfected with NP-1+mRNA at 20 ng/mRNA/well in Opti-MEM® media (Thermofisher). Interferon (IFN) was diluted to 1:50 in all test wells except for the RNA only wells and media only wells. Anti-IFN was diluted 1:1000 in “RNA+anti-IFN+IFN” wells. Cells were incubated for 4 hours, and culture medium was added to the Opti-MEM® medium. After 24 hours, assay supernatants were collected and analyzed for nLuc expression, IFIT2 (qLuc), and NFκB (qBLUE-SEAP™, InvivoGen) activation. Cells were then lysed, and cell viability was determined by CellTiter-Glo® (Promega) assay.

[8] = test system: NF-κB; experiment: Single-point screen: NFκB activation (SEAP reporter); assay type: cell-based, human; details: Homo sapiens, 24 h; A549-Dual cells, compound 50 μM pre-treatment, NP-1+mRNA 20 ng/well + IFN; read-out: fold NFkB over IFN
Excerpt: as §1

[9] = test system: A549-Dual cells; experiment: Single-point kinase inhibitor library screen: nLuc expression from NP-1+mRNA-nLuc in IFN-treated cells; assay type: cell-based, human; details: Homo sapiens, compound 50 μM pre-treatment, NP-1+mRNA 20 ng/well + IFN, read-out: fold nLuc over RNA + IFN
Protocol: as §1
To measure protein expression from mRNA, which is the primary readout for compound down selection, mRNA encoding a secreted version of nanoluciferase (mRNA-nLuc) was used. Protein expression was measured via a luminometer using standard techniques.
As additional criterion, expression in compound treated cells was compared relative to mRNA-transfected cells without IFN (“RNA only”) (data not shown).
A library of small molecule kinase inhibitors was screened for the ability to enhance expression of mRNA-encoded genes when co-delivered with mRNA.

[10] = target: mouse IFN alpha/beta receptor (IFNAR-1) (mouse) (UniProt P33896); experiment: cell-based or functional assay
Chain of mouse IFN alpha/beta receptor (IFNAR-1) (mouse) (P33896 27-590 limits assumed): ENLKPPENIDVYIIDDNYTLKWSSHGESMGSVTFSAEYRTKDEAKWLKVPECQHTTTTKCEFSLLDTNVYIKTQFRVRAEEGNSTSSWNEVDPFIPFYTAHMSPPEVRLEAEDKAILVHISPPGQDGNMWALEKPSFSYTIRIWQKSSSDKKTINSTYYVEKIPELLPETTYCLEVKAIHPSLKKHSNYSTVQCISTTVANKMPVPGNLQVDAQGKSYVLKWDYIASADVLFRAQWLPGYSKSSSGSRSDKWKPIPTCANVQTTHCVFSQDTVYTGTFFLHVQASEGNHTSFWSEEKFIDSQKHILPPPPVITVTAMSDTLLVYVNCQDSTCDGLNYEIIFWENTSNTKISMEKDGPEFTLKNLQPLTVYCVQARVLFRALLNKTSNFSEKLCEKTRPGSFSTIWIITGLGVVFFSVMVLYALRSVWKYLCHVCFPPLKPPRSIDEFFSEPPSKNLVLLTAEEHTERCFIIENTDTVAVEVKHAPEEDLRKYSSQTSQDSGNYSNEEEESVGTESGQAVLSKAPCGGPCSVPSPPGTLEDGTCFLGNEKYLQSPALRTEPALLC

Compound | ZIKV-117 expression compared to no compound group [1] | IFIT2 induction [3] | IFN-beta mediated NF-κB induction relative to cells transfected with NP-35 [4] | also measured
CC(=O)N[C@@H]1CCC[C@H](C(=O)Nc2cc(-c3cnn4c3CC(C)(C)C4)c(Cl)cn2)C1 [AZD4573, (1S,3R)-3-acetamido-N-[5-chloro-4-(5,5-dimethyl-4,6-dihydropyrrolo[1,2-b]pyrazol-3-yl)pyridin-2-yl]cyclohexane-1-carboxamide] | higher total expression than no compound group but not statistically significant | significant dose-dependent reduction in IFIT2 induction | – | total protein (SEAP) expression, AUC of expression kinetics [2]: significant increase in total protein expression
CNc1nc(C)c(-c2nc(Nc3cccc(S(N)(=O)=O)c3)ncc2F)s1 [CDKI-73, 3-[[5-fluoro-4-[4-methyl-2-(methylamino)-1,3-thiazol-5-yl]pyrimidin-2-yl]amino]benzenesulfonamide] | higher total expression than no compound group but not statistically significant | – | slight increase in IFN-beta mediated NF-κB induction | –
CCc1cnn2c(NCc3ccc[n+]([O-])c3)cc(N3CCCC[C@H]3CCO)nc12 [Dinaciclib, 2-[(2S)-1-[3-ethyl-7-[(1-oxidopyridin-1-ium-3-yl)methylamino]pyrazolo[1,5-a]pyrimidin-5-yl]piperidin-2-yl]ethanol] | significantly enhanced ZIKV-117 expression | significant dose-dependent reduction in IFIT2 induction | – | ZIKV-117 expression compared to positive control (anti-IFNAR-1) ([1]; Dinaciclib 5 mg/kg IV): more rapid and higher magnitude expression; nLuc expression relative to NP-35/repRNA-nLuc without Dinaciclib [5]: significantly enhanced nLuc expression
COc1ccc(F)cc1-c1cc(NC(=O)[C@@H]2CCCNC2)ncc1Cl [CDK-IN-2, (3R)-N-[5-chloro-4-(5-fluoro-2-methoxyphenyl)pyridin-2-yl]piperidine-3-carboxamide] | – | significant dose-dependent reduction in IFIT2 induction | slight increase in IFN-beta mediated NF-κB induction | fold induction at 50 µM [6]: 1.06; % viability [7]: 23%; fold induction at 50 µM [8]: 0.28; fold induction at 50 µM [9]: 157
IFNAR-1 blocking monoclonal antibody (MAR1-5A3) | – | – | – | SEAP expression in serum of C57BL/6 mice on day seven after IM injection of NP-1/repRNA-SEAP [10]: 10 fold
